molecular target: NLRP3 inflammasome (Homo sapiens (Human), UniProt Q96P20); test: Evaluation of NLRP3 inflammasome inhibitory activity (inhibition of IL-1β production in LPS/Nigericin-stimulated THP1-Null cells); type: cell-based; settings: IL-1β production in THP1-Null cells, PMA, LPS 1 μg/mL, Nigericin 7.5 μmol/L, AlphaLISA
Protocol: The NLRP3 inflammasome inhibitory activity of test compounds were evaluated on the basis of the inhibitory activity of the IL-1β production in THP1-Null cells (Product Number: thp-null, InvivoGen). […] The supernatant of the culture was removed, and thereto was added media for assay (25 μL/well) containing 1 μg/mL Lipopolysaccharides (Product Number: L2654, Sigma-Aldrich (registered trademark)). […] The supernatant of the culture was removed. […] A solution containing a test compound (20 μL/well) was added to test compound-setting wells. […] The supernatant of the culture was cryonically stored (set at −20° C.) until measurement of IL-1β.
The amount of IL-1β in the culture supernatant was quantitated with AlphaLISA(registered trademark) Human IL-1β Detection Kit (Product Number: AL220C, Perkin Elmer). Fluorescence intensity was measured with a microplate reader EnSpier (Model number: 2300-00J, Perkin Elmer) or EnSight(Model number: HH34000000, Perkin Elmer) according to procedure manuals attached thereto. Inhibition rates of the test compound-setting wells were calculated on the basis of 100% for the blank-setting wells and 0% for the control-setting wells.

Chain of NLRP3 inflammasome (Q96P20 whole entry): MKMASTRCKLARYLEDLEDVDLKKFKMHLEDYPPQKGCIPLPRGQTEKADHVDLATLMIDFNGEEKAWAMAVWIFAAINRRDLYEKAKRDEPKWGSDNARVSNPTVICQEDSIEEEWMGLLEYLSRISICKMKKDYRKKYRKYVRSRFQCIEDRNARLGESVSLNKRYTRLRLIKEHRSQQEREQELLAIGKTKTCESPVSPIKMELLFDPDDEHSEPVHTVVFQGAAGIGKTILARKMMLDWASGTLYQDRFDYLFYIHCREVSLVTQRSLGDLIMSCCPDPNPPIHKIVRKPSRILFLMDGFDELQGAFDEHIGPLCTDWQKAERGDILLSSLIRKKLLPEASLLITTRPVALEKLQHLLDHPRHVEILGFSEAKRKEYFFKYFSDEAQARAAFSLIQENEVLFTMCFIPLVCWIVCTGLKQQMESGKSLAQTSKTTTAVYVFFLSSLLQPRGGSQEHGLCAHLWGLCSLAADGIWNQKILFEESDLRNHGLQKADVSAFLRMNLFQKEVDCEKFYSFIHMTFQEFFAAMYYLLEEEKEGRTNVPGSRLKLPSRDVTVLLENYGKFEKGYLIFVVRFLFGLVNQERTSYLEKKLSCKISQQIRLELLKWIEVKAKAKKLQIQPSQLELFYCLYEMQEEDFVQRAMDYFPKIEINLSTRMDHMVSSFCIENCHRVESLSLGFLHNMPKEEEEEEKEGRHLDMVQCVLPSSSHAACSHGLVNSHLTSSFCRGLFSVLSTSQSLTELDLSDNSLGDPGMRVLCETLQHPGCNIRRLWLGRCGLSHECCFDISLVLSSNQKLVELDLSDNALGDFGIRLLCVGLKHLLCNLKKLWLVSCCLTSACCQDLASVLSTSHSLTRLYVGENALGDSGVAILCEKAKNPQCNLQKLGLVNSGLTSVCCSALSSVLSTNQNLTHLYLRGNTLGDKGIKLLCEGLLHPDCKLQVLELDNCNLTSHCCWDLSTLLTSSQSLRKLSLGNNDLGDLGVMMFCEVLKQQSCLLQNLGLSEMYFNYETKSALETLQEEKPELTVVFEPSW

First: COC(c1cc(C2CC2)ccc1-n1cc2c(=O)[nH]c(N3C[C@H]4C[C@@H]3CO4)nc2n1)C1CC1 (some centres unmarked) [Example 315]
Second: COC(c1cc(Br)ccc1-n1cc2c(=O)[nH]c(N3C[C@H]4C[C@@H]3CO4)nc2n1)C1CC1 (some centres unmarked) [Example 314]
The IC50 of the first is 1.6-fold lower: 670 nM for the first, 1100 nM for the second. The first is the more potent here.

First: CCOc1cc(Br)ccc1-n1cc2c(=O)[nH]c(N3CCOCC3)nc2n1 [Example 302]
Second: COc1cc(Br)ccc1-n1cc2c(=O)[nH]c(N3CCOCC3)nc2n1 [Example 304]
The IC50 of the first is 2-fold higher: 130 nM for the first, 65 nM for the second. The second is the more potent here.

First: COC1CCN(c2nc3nn(-c4c(C)cccc4C)cc3c(=O)[nH]2)C1 (racemic) [Example 54]
Second: Cc1cccc(C)c1-n1cc2c(=O)[nH]c(N3CCCC3)nc2n1 [Example 11]
The IC50 of the first is 2.4-fold higher: 480 nM for the first, 200 nM for the second.

Cc1cc(Br)cc(F)c1-n1cc2c(=O)[nH]c(N3CCOCC3)nc2n1 [Example 254] and Cc1cc(C)c(-n2cc3c(=O)[nH]c(N4CCOCC4)nc3n2)c(C)c1 [Example 96] are the same in IC50: 14 nM for the first, 14 nM for the second.

Cc1ccc(-n2nc3nc(N4CCCC4)[nH]c(=O)c3c2C)c(C)c1 [Example 55] and Cc1ccc(C)c(-n2cc3c(=O)[nH]c(N4CCCC4)nc3n2)c1 [Example 46] are within 1.5-fold of each other in IC50: 230 nM for the first, 290 nM for the second.

CC(=O)N1CCN(c2nc3nn(-c4ccc(Br)cc4C)cc3c(=O)[nH]2)CC1 [Example 73] and Cc1cc(Br)ccc1-n1cc2c(=O)[nH]c(N3CCCC3)nc2n1 [Example 62] are within 1.5-fold of each other in IC50: 8.2 nM for the first, 9.1 nM for the second.

Compared with O=c1[nH]c(N2CCCC2)nc2nn(-c3cccc4ccccc34)cc12 [Example 68], O=c1[nH]c(N2CCCC2)nc2nn(-c3ccc(Cl)cc3Cl)cc12 [Example 127] is 92-fold lower in IC50: 1200 nM for the first, 13 nM for the second.

Compared with O=c1[nH]c(N2CCOCC2)nc2nn(-c3ccc(Br)cc3C(O)C3CC3)cc12 (racemic) [Example 150], CC(O)c1cc(Br)ccc1-n1cc2c(=O)[nH]c(N3CCOCC3)nc2n1 (racemic) [Example 130] is 3.9-fold higher in IC50: 16 nM for the first, 63 nM for the second. The first is the more potent here.

Going from Cc1cc(Br)cc(C)c1-n1cc2c(=O)[nH]c(N3CC4CC(C3)N4S(C)(=O)=O)nc2n1 [Example 222] to Cc1cc(Br)cc(C)c1-n1cc2c(=O)[nH]c(N3CC4CC(C3)O4)nc2n1 [Example 211], the IC50 falls from 18 nM to 4.6 nM (3.9-fold). The second is the more potent here.

Compared with Cc1cc(C)c(-n2cc3c(=O)[nH]c(N4CCNCC4)nc3n2)c(C)c1 [Example 102], Cc1cc(C)c(-n2cc3c(=O)[nH]c(N4CCCC4)nc3n2)c(C)c1 [Example 63] is 7.6-fold lower in IC50: 130 nM for the first, 17 nM for the second.

CC(C)(C)c1ccc(-n2cc3c(=O)[nH]c(N4CCOCC4)nc3n2)c(Br)c1 [Example 306] and CC(=O)c1cc(Br)ccc1-n1cc2c(=O)[nH]c(N3CCOCC3)nc2n1 [Example 131] are within 1.5-fold of each other in IC50: 85 nM for the first, 63 nM for the second.

First: O=c1[nH]c(N2CC3(CC(O)C3)C2)nc2nn(-c3ccc(C(F)(F)F)cc3Cl)cc12 [Example 183]
Second: O=c1[nH]c(N2CCCNCC2)nc2nn(-c3ccc(C(F)(F)F)cc3Cl)cc12 [Example 133]
The IC50 of the first is 4.2-fold lower: 15 nM for the first, 63 nM for the second.

Going from Cc1ccccc1-n1cc2c(=O)[nH]c(N(C)C(C)C)nc2n1 [Example 23] to Cc1cc(Br)cc(C)c1-n1cc2c(=O)[nH]c(N(C)C(C)C)nc2n1 [Example 291], the IC50 falls from 1900 nM to 16 nM (120-fold). The second is the more potent here.

Compared with O=c1[nH]c(N2CCCC2)nc2nn(-c3c(F)cccc3F)cc12 [Example 10], O=c1[nH]c(N2CCCC2)nc2nn(-c3ccc(Cl)cc3F)cc12 [Example 97] is 89-fold lower in IC50: 2400 nM for the first, 27 nM for the second.

Cc1cc(C(C)C)ccc1-n1cc2c(=O)[nH]c(N3CCCC3)nc2n1 [Example 83] and COc1ccc(-n2cc3c(=O)[nH]c(N4CCCC4)nc3n2)c(Br)c1 [Example 307] are within 1.5-fold of each other in IC50: 8.4 nM for the first, 11 nM for the second.

First: Cc1cc(Br)cc(C)c1-n1cc2c(=O)[nH]c(N3CCOCC3O)nc2n1 (racemic) [Example 363]
Second: Cc1cc(Br)cc(C)c1-n1cc2c(=O)[nH]c(N3CCOC4CC43)nc2n1 (racemic) [Example 289]
The IC50 of the first is 3.4-fold lower: 2.9 nM for the first, 10 nM for the second. The first is the more potent here.

First: Cc1cccc(C)c1-n1cc2c(=O)[nH]c(N3CC(C(F)(F)F)C3)nc2n1 [Example 53]
Second: Cc1cc(C)c(-n2cc3c(=O)[nH]c(N4CC5C(C4)C5(F)F)nc3n2)c(C)c1 (centres unmarked) [Example 114]
The IC50 of the first is 28-fold higher: 750 nM for the first, 27 nM for the second.

Compared with Cc1cc(C2CC2)cc(Cl)c1-n1cc2c(=O)[nH]c(N3CC4CC(C3)O4)nc2n1 [Example 297], Cc1cc(C2CC2)cc(C)c1-n1cc2c(=O)[nH]c(N3CCC3)nc2n1 [Example 328] is 1.7-fold lower in IC50: 9.9 nM for the first, 5.8 nM for the second. The second is the more potent here.

Cc1cc(C)c(-n2cc3c(=O)[nH]c(N4CCC(N(C)C)C4)nc3n2)c(C)c1 (racemic) [Example 113] and Cc1cc(C)c(-n2cc3c(=O)[nH]c(N4CCCC(O)C4)nc3n2)c(C)c1 (racemic) [Example 107] are within 1.5-fold of each other in IC50: 63 nM for the first, 58 nM for the second.

COc1nc(N2CCN(S(C)(=O)=O)CC2)nc2nn(-c3ccc(Br)cc3C)cc12 [Example 137] and Cc1cc(Br)ccc1-n1cc2c(=O)n(CC#N)c(N3CCN(S(C)(=O)=O)CC3)nc2n1 [Example 173] are within 1.5-fold of each other in IC50: 170 nM for the first, 120 nM for the second.

First: COc1cc(C)c(-n2cc3c(=O)[nH]c(N4CCOCC4)nc3n2)c(C)c1 [Example 253]
Second: Cc1cc(C(C)C(F)(F)F)cc(C)c1-n1cc2c(=O)[nH]c(N3CCOCC3)nc2n1 (racemic) [Example 294]
The IC50 of the first is 11-fold lower: 24 nM for the first, 270 nM for the second. The first is the more potent here.

Going from COC[C@@H]1CCN(c2nc3nn(-c4ccc(Br)cc4C)cc3c(=O)[nH]2)CCO1 [Example 192] to O=c1[nH]c(N2CCOCC2)nc2nn(-c3ccc(Br)cc3CO)cc12 [Example 104], the IC50 rises from 32 nM to 140 nM (4.4-fold).

Compared with CC(=O)N1CCN(c2nc3nn(-c4c(C)cc(C5CC5)cc4C)cc3c(=O)[nH]2)[C@H](C)C1 [Example 290], Cc1cc(C2CC2)cc(C)c1-n1cc2c(=O)[nH]c(N3CCCC3)nc2n1 [Example 286] is 2.4-fold lower in IC50: 10 nM for the first, 4.2 nM for the second.

Going from O=c1[nH]c(N2CCOCC2)nc2nn(-c3ccc(Cl)cc3C(F)(F)F)cc12 [Example 176] to O=c1[nH]c(N2CCOCC2)nc2nn(-c3ccc(Br)cc3C(F)(F)F)cc12 [Example 241], the IC50 falls from 27 nM to 11 nM (2.5-fold).

Going from Cc1cc(C)c(-n2cc3c(=O)[nH]c(N4CC(F)(F)C4)nc3n2)c(C)c1 [Example 92] to Cc1cc(Br)cc(C)c1-n1cc2c(=O)[nH]c(N3CCC(C(C)(C)O)C3)nc2n1 (racemic) [Example 194], the IC50 rises from 11 nM to 24 nM (2.2-fold). The first is the more potent here.

First: Cc1ccccc1-n1cc2c(=O)[nH]c(N3CCC(O)C3)nc2n1 (racemic) [Example 21]
Second: Cc1ccccc1-n1cc2c(=O)[nH]c(N3CCC3Cc3ccccc3)nc2n1 (racemic) [Example 38]
The IC50 of the first is 1.6-fold lower: 1600 nM for the first, 2500 nM for the second. The first is the more potent here.

First: Cc1c(-n2cc3c(=O)[nH]c(N4CCCC4)nc3n2)c(C(F)(F)F)nn1C(C)C [Example 346]
Second: Cc1c2c(=O)[nH]c(N3CCCC3)nc2nn1-c1ccc(C(F)(F)F)cc1 [Example 151]
The IC50 of the first is 1.6-fold higher: 81 nM for the first, 50 nM for the second. The second is the more potent here.

Going from Cc1ccc(C(F)(F)F)c(-n2cc3c(=O)[nH]c(N4CCOCC4)nc3n2)c1 [Example 341] to O=c1[nH]c(N2CCCOCC2)nc2nn(-c3ccc(C(F)(F)F)cc3Cl)cc12 [Example 129], the IC50 falls from 270 nM to 35 nM (7.7-fold). The second is the more potent here.

Cc1cc(OC(F)F)cc(C)c1-n1cc2c(=O)[nH]c(N3CCOCCO3)nc2n1 [Example 352] and Cc1cc(Cl)cc(C#N)c1-n1cc2c(=O)[nH]c(N3CCOCC3)nc2n1 [Example 168] are within 1.5-fold of each other in IC50: 68 nM for the first, 60 nM for the second.

Going from O=c1[nH]c(N2C[C@@H]3C[C@H]2CO3)nc2nn(-c3ccc(C4CC4)cc3C(F)(F)F)cc12 [Example 263] to O=c1[nH]c(N2C[C@H]3C[C@@H]2CO3)nc2nn(-c3ccc(Br)cc3C(F)(F)F)cc12 [Example 259], the IC50 rises from 8.6 nM to 23 nM (2.7-fold).

First: Cc1cc(Br)cc(C)c1-n1cc2c(=O)[nH]c(N3CCc4cccnc43)nc2n1 [Example 340]
Second: CNc1nc2nn(-c3c(C)cc(Br)cc3C)cc2c(=O)[nH]1 [Example 185]
The IC50 of the first is 84-fold higher: 470 nM for the first, 5.6 nM for the second. The second is the more potent here.

O=c1[nH]c(N2CCOCC2)nc2nn(-c3ccc(C4CC4)cc3CC3CC3)cc12 [Example 321] and O=c1[nH]c(N2CCOCC2)nc2nn(-c3ccc(C4CC4)cc3C(F)F)cc12 [Example 244] are within 1.5-fold of each other in IC50: 29 nM for the first, 22 nM for the second.

Going from Cc1cc(Br)ccc1-n1cc2c(OC(C)C)nc(N3CCOCC3)nc2n1 [Example 136] to O=c1[nH]c(N2CCOCC2)nc2nn(-c3ccc(Br)cc3OC3CCC3)cc12 [Example 305], the IC50 falls from 230 nM to 48 nM (4.8-fold).

Going from COc1ccccc1CN(C)c1nc2nn(-c3ccccc3C)cc2c(=O)[nH]1 [Example 7] to Cc1cc(Br)ccc1-n1cc2c(=O)[nH]c(N3CCN(c4ncccn4)CC3)nc2n1 [Example 149], the IC50 falls from 22000 nM to 21 nM (1000-fold). The second is the more potent here.

C[C@@H]1COCCN1c1nc2nn(-c3ccc(Br)cc3C(F)(F)F)cc2c(=O)[nH]1 [Example 258] was tested, and the IC50 was 23 nM.

same assay, conditions: IL-1β production in THP1-Null cells; test compound 0.0024 μM

Going from Cc1cc(C(F)(F)F)cc(C)c1-n1cc2c(=O)[nH]c(N3CCOC[C@H]3C)nc2n1 [Example 251] to Cc1cc(Br)cc(C)c1-n1cc2c(=O)[nH]c(NC(C)C)nc2n1 [Example 235], the inhibition at 0.0024 µM falls from 65% to 52%.

same assay, conditions: IL-1β production in THP1-Null cells; test compound 2.4 μM

First: COc1ccc(CNc2cc(C(F)(F)F)cc(Cl)c2-n2cc3c(=O)[nH]c(N4CCOCC4)nc3n2)c(OC)c1 [Example 269]
Second: O=c1[nH]c(N2CCOCC2)nc2nn(-c3c(Cl)cc(C(F)(F)F)cc3N3CCOCC3)cc12 [Example 256]
The inhibition at 2.4 µM of the first is lower: 25% for the first, 40% for the second.

Cc1cc(Br)cc(C)c1-n1cc2c(OC(F)F)nc(N3CCOCC3)nc2n1 [Example 332] gave an inhibition at 2.4 µM of 33%.
